This note sets out measurements from patent US12473326B2, “Crystalline forms of dexamethasone dimers and uses thereof” (Ripple Therapeutics Corporation, priority 2019, dated 2025).

Series [1] is described as follows: Drug release from crystalline powders suspended in PBS with 50% FBS, quantified by HPLC over time. The format is physicochemical. The settings on record: crystalline powder suspended in PBS with 50% FBS, FIG. 12. From the text: FIG. 12 is a graph depicting the release of Compound 1 from crystalline powders suspended in phosphate buffered saline (PBS) with 50% fetal bovine serum (FBS). The release of Compound 1 from the different crystalline forms was quantified by HPLC over time as described in Example 10.
Form I/II (mixture) and Form IV of Compound 1 were formed from acetonitrile and ethanol respectively. The crystalline powders were suspended in phosphate buffered saline (PBS) with 50% fetal bovine serum (FBS) and drug release from the different forms was quantified by HPLC over time (see FIG. 12).

Series [2] can be described thus: Solubility in organic solvents. It counts as physicochemical. From the text: This observation has implications for coating applications as making high concentration coating solutions (e.g., for coating a surface by dip coating or spray coating a solution of Compound 1 onto the surface) will be much more practical from Form II than from Form IV.
A short description of series [3]: Differential scanning calorimetry (behaviour on heating). The format is physicochemical. The settings on record: DSC, FIG. 14. A general note: DSC measures the heat that a sample takes up or gives off during a temperature scan.
The format of series [4] is physicochemical. The settings on record: for thermodynamic stability of polymorph: solid form, comparison among observed polymorphs; for interconversion into other polymorphs: under the conditions tested. From the text: Thus, Form IV in solid form has the advantage of longer-term shelf life without interconversion into another crystalline form.
A short description of series [5]: Drug release from heat-molded glassy pellets in PBS, 1% FBS in PBS or 100% FBS at 37° C. (HPLC). The format is physicochemical. The settings on record: heat-molded pellets in the glassy state, about 1 mm x 1 mm.
Experimental: Heat-molded pellets from Compound 1 (˜1 mm×1 mm) were then placed in 20 mL glass vials and 2 mL of release buffer (either 100% phosphate buffered saline (PBS), 1% fetal bovine serum (FBS) in PBS, or 100% FBS) was added. Samples were incubated at 37° C. on a shaker rotating at 115 rpm. After 1 day, 3 days, 7 days, and subsequently in alternating 3 and 4 day intervals (i.e., 1, 3, 7, 10, 14 days etc.), release buffer was sampled directly (PBS) or syringe filtered, proteins were precipitated with acetonitrile, and drug release products were extracted. The samples were analyzed by high performance liquid chromatography (HPLC) to quantify drug products.
Series [6] can be described thus: Solubility in 90% acetonitrile-10% water as a function of temperature. It counts as physicochemical. The settings on record: Form II vs Form IV, FIG. 15. As for the experimental part: FIG. 15 is a graph depicting the difference in the solubilities (mg/mi) of Form II and Form IV in […] as a function of temperature.
The solubility of Form II and Form IV were measured in 90% acetonitrile-10% water as a function of temperature (see FIG. 15).

Each structure is given as a SMILES string.

For the molecule `C[C@@H]1C[C@H]2[C@@H]3CCC4=CC(=O)C=C[C@]4(C)[C@@]3(F)[C@@H](O)C[C@]2(C)[C@@]1(O)C(=O)COC(=O)OCCOCCOCCOC(=O)OCC(=O)[C@@]1(O)[C@H](C)C[C@H]2[C@@H]3CCC4=CC(=O)C=C[C@]4(C)[C@@]3(F)[C@@H](O)C[C@@]21C` [Form IV], the “drug release from the crystalline form over time” value in series [1] is given as “slower dissolution”. The “solubility in organic solvents relative to Form II” value in series [2] (acetonitrile, ethanol, tetrahydrofuran, 2-methyl tetrahydrofuran, isobutyl acetate, acetone, butyl acetate, ethyl acetate, isopropyl acetate, methanol) is reported as “ca. 10 fold”. Besides, the “behaviour on heating (thermal stability)” value in series [3] was “decomposes on heating”. Moreover, in series [4], the “thermodynamic stability of polymorph” value is “most thermodynamically stable polymorph observed” and the “interconversion into other polymorphs” value was “not seen to convert into any other polymorphs”.

For `C[C@@H]1C[C@H]2[C@@H]3CCC4=CC(=O)C=C[C@]4(C)[C@@]3(F)[C@@H](O)C[C@]2(C)[C@@]1(O)C(=O)COC(=O)OCCOCCOCCOC(=O)OCC(=O)[C@@]1(O)[C@H](C)C[C@H]2[C@@H]3CCC4=CC(=O)C=C[C@]4(C)[C@@]3(F)[C@@H](O)C[C@@]21C` [Compound 1, dexamethasone-triethylene glycol-dexamethasone], the “mechanism of drug release from pellet” value in series [5] was “Release Drug Through Surface Erosion from an Intact Pellet”.

Take `C[C@@H]1C[C@H]2[C@@H]3CCC4=CC(=O)C=C[C@]4(C)[C@@]3(F)[C@@H](O)C[C@]2(C)[C@@]1(O)C(=O)COC(=O)OCCOCCOCCOC(=O)OCC(=O)[C@@]1(O)[C@H](C)C[C@H]2[C@@H]3CCC4=CC(=O)C=C[C@]4(C)[C@@]3(F)[C@@H](O)C[C@@]21C` [Form VIII]: in series [4] (after 14 days at room temperature and/or cooling at 0° C. for 14 days), the “conversion to another form by PXRD” value was “conversion to Form IV”.

`C[C@@H]1C[C@H]2[C@@H]3CCC4=CC(=O)C=C[C@]4(C)[C@@]3(F)[C@@H](O)C[C@]2(C)[C@@]1(O)C(=O)COC(=O)OCCOCCOCCOC(=O)OCC(=O)[C@@]1(O)[C@H](C)C[C@H]2[C@@H]3CCC4=CC(=O)C=C[C@]4(C)[C@@]3(F)[C@@H](O)C[C@@]21C` [Form I/II]: the “drug release from the crystalline form over time” value in series [1] was “faster release compared to Form IV”.

As to `C[C@@H]1C[C@H]2[C@@H]3CCC4=CC(=O)C=C[C@]4(C)[C@@]3(F)[C@@H](O)C[C@]2(C)[C@@]1(O)C(=O)COC(=O)OCCOCCOCCOC(=O)OCC(=O)[C@@]1(O)[C@H](C)C[C@H]2[C@@H]3CCC4=CC(=O)C=C[C@]4(C)[C@@]3(F)[C@@H](O)C[C@@]21C` [Form II], the “solubility in organic solvents, comparison in words” value in series [2] (Form II vs Form IV) is “much more soluble in organic solvents than Form IV”. Further, in series [4], the “thermodynamic stability of polymorph” value is “high thermodynamic stability” and the “interconversion into other polymorphs” value is given as “not observed to convert to Form IV”. The “solubility as a function of temperature” value in series [6] was “higher solubility”.
